{"source": "patent US20150329582A1", "about": "“SMALL MOLECULE COMPOUNDS SELECTIVE AGAINST GRAM-NEGATIVE BACTERIAL INFECTIONS” (priority 2014, published 2015)", "key": {"[1]": {"tested_on": "30S rRNA ribosomal mutant, A1408G", "assay": "Error frequency assay with 30S rRNA ribosomal mutant", "format": "biochemical", "details": "increasing concentrations of Mangrolide A", "description": "(§1) The error frequency assay was conducted to determine whether a 30S rRNA ribosomal mutant, A1408G is susceptible to Mangrolide A. The mutation site is shown in FIG. 8A. […] (FIG. 8B) When wild type or A1408G (S30) mutant bacteria were grown in wells of a microwell plate containing no additions (No—negative control), Ampicillin or Tetracyclin in the presence or absence of Mangrolide A, A1408G (S30) mutants proliferated similarly to the proliferation of wild type bacteria grown in the absence of Mangrolide A. (FIG. 8C)."}, "Bacillus subtillis": {"tested_on": "Bacillus subtillis", "assay": "Minimal Inhibitory Concentration (MIC) test", "format": "cell-based", "details": "Gram positive"}, "[2]": {"tested_on": "S-30 extract from E. coli (30S ribosomal extract)", "assay": "Error frequency in vitro protein synthesis assay (amino acid misincorporation)", "format": "biochemical", "details": "increasing concentrations (μM) of Mangrolide A, 14C-phenylalanine / 3H-leucine incorporation", "description": "Error Frequency In Vitro Protein Synthesis Assay Using Natural mRNA\n72 mM Tris-hydrochloride pH 7.5, 72 mM NH4Cl, 12 mM magnesium acetate, 2.4 mM dithiothreitol (Sigma Co.), 2 mM adenosine triphosphate (ATP), 0.1 mM guanosine triphosphate (GTP), 5 mM phosphoenolpyruvate (Sigma Co.), 20 ug of pyruvate kinase (Sigma Co.) per mL, a mixture of 19 amino acids (each at 72 uM), 13 uM [^14C]leucine (50 counts/min per picomole), 50 ug of calcium folinate (S.P.E.C.I.A., Paris, France) per mL, 0.2 mM DFP, and 0.6 mM Mg Titriplex in a final volume of 0.125 mL per tube. mRNA (1300 μg), an S-30 extract from E. coli (200 μg), or ribosomes plus S-150 (200 μg) and crude initiation factors were added. Incubations were for 30 minutes at 37° C. The extent of amino acid incorporation was determined by measuring the radioactivity remaining insoluble after treatment with hot trichloroacetic acid (90° C. for 15 min). To reduce endogenous mRNA, ribosomes plus 5-150 or S-30 extracts were preincubated just prior to use at 37° C. for 15 min in the reaction mixture described above without [^14C]leucine, the energy generating system and added mRNA.\nAssay for Polyuridylic Acid [Poly(U)]-Directed-Polyphenylalanine Synthesis. […]"}, "[3]": {"tested_on": "Gram-negative bacterial pathogens (Burkholderia cenocepacia J2315, Burkholderia cenocepacia, Pseudomonas aeruginosa PAO1, Acinetobacter baumannii BAA-1793 and …)", "assay": "Minimal Inhibitory Concentration (MIC) test", "format": "cell-based", "description": "Minimal Inhibitory Concentration (MIC) Test\nThe MIC test was performed by adding 2.0 mL of an antibiotic solution (100 ug/mL) to the first tube (out of, e.g., 9 tubes). 1.0 mL of sterile broth was added to all other tubes. 1.0 mL was transferred from the first tube to the second tube. Using a separate pipette, the contents of this tube were mixed and 1.0 mL was transferred to the third tube. Dilutions were continued in this manner through tube number 8. 1.0 mL was removed from tube 8 and discarded. […] Colonies of the culture were suspended to an appropriate turbidity to be tested in 5.0 mL of Mueller-Hinton broth to give a slightly turbid suspension. This suspension was diluted by aseptically pipetting 0.2 mL of the suspension into 40 mL of Mueller-Hinton broth. 1.0 mL of the diluted culture suspension was added to each of the tubes. The final concentration of the antibiotic was one-half of the original concentration in each tube. All tubes were incubated at 35° C. overnight. […]\nAntibiotic activity, measured as MIC in μg/mL, of natural Mangrolide A and a synthetic Mangrolide A O-methyl ether derivative were compared against the following Gram-negative microbial pathogens: Burkholderia cenocepacia J2315, Burkholderia cenocepacia, Pseudomonas aeruginosa PAO1, Acinetobacter Baumannii BAA-1793, Acinetobacter baumannii BAA-1605, Escherichia coli (EHEC), and Klebsiella pneumoniae."}, "Staphyloccus aureus": {"tested_on": "Staphyloccus aureus", "assay": "Minimal Inhibitory Concentration (MIC) test", "format": "cell-based", "details": "Gram positive"}, "[4]": {"tested_on": "A1408G (S30) mutant bacteria", "assay": "Growth of wild type or A1408G (S30) mutant bacteria in the presence of Mangrolide A", "format": "cell-based", "details": "grown with or without Mangrolide A, compared with wild type", "description": "as §1"}, "[5]": {"tested_on": "E. coli expressing neomycin phosphotransferase-1 (NPT)", "assay": "Poly(U)-directed polyphenylalanine synthesis, with or without neomycin phosphotransferase-1", "format": "cell-based", "details": "for antibiotic activity against E. coli expressing NPT: E. coli transformed with resistance plasmid expressing neomycin phosphotransferase-1", "description": "Assay for Polyuridylic Acid [Poly(U)]-Directed-Polyphenylalanine Synthesis.\nThe reaction mixture contained 400 ug of E. coli B transfer RNA (General Biochemicals, Chagrin Falls, Ohio) per mL, 5 mM spermidine, and [^14C]leucine was replaced with 13 μM [^14C]phenylalanine ([…]). A poly(UUU) RNA template [5′-[…](UUU)12UAAGCAGG-3′ (SEQ ID NO: 1) was used at a concentration of 100 ug per assay. (Legault-Demare and Chambliss, Journal of Bacteriology, 1974, 120(3): 1300-1307).\nThe assay for polyuridylic acid [poly(U)]-directed-polyphenylalanine synthesis was conducted in the presence or absence of neomycin phosphotransferase-1 (NPT). Wild type E. coli and E. coli transformed with a resistance plasmid expressing neomycin phosphotransferase-1 (NPT) were treated with Mangrolide A and translational error frequency determined."}}, "data": [{"compound": "CC[C@H]1/C=C(\\C)[C@@H](O)C/C=C/C=C(\\CO)C(=O)O[C@H](C(C)C)C/C=C(C)/C=C(\\C)[C@@H]1O[C@@H]1O[C@H](C)[C@@H](O[C@@H]2O[C@H](C)[C@@H](OC)[C@H](O)[C@H]2OC)[C@H](N(C)C)[C@H]1O", "note": "[Mangrolide A, mangrolide A]", "values": [{"measurement": "misincorporation of amino acids with A1408G mutant", "setting": "[1]", "value": "limited misincorporation was induced"}, {"measurement": "MIC", "setting": "Bacillus subtillis", "value": "> 32", "unit": "µg/mL"}, {"measurement": "misincorporation of amino acids during protein synthesis", "setting": "[2]", "value": "increased misincorporation of amino acids"}, {"measurement": "misincorporation of amino acids during protein synthesis", "setting": "[2]; listed as mangrolide", "value": "induces misincorporation of amino acids"}, {"measurement": "antibiotic potency compared with the Mangrolide A O-methyl ether derivative", "setting": "[3]; all Gram-negative bacteria tested", "value": "more potent antibiotic against all Gram-negative bacteria tested"}, {"measurement": "MIC range", "setting": "[3]; range over the Gram-negative bacterial pathogens tested", "value": "0.25 to 1", "unit": "µg/mL"}, {"measurement": "MIC", "setting": "Staphyloccus aureus", "value": 32, "unit": "µg/mL"}, {"measurement": "susceptibility of A1408G mutant bacteria (growth)", "setting": "[4]", "value": "A1408G mutant is resistant"}, {"measurement": "susceptibility of A1408G mutant bacteria (growth)", "setting": "[4]; listed as mangrolide", "value": "A1408G mutant strain was able to grow on plates with mangrolide, unlike the wildtype"}, {"measurement": "antibiotic activity against E. coli expressing NPT", "setting": "[5]", "value": "inactivated by the expressed neomycin phosphotransferase-1 activity"}, {"measurement": "antibiotic activity against E. coli expressing NPT", "setting": "[5]; listed as mangrolide", "value": "inactivated by neomycin phosphotransferase-1"}, {"measurement": "translational error frequency in E. coli expressing NPT", "setting": "[5]; grown in the presence of Mangrolide A", "value": "error frequency comparable to wild type E. coli"}]}]}
